This is an account of results in patent US9113629B2, “4-amino-6-(4-substituted-phenyl)-picolinates and 6-amino-2-(4-substituted-phenyl)-pyrimidine-4-carboxylates and their use as herbicides” (DOW AGROSCIENCES LLC, priority 2013, dated 2015).

Experiment [1] deals with SASKR: Russian thistle (Salsola iberica). Description: Post-emergent Test III, herbicidal activity in wheat and barley. The format is in vivo. The settings on record: 21 days after application. Put shortly:
(§1)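 GR20, GR50, GR80 and GR90 come from probit analysis of visual injury scores (0 = none, 100 = complete kill) taken 21 d after treatment. Foliar application was by track sprayer delivering 187 L/ha at five rates, from high down to 1/16×, onto greenhouse plants at the 2–3 leaf stage, with solvent-blank controls.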

Experiment [2] concerns VIOSS: wild pansy (Viola tricolor), field violet (Viola arvensis). Described as above. The class given is in vivo. The settings on record: 21 days after application. Put shortly: as §1
Experiment [3] has as its system SETVI. The experiment in a line: Pre-emergent Test III, preemergent activity in wheat and barley. The class given is in vivo, Setaria viridis. The method, then:
Pre-emergent Test III. Seeds of test species were planted into square plastic pots (10 cm wide) containing sandy loam soil. After planting, all pots were sub-irrigated 16 h prior to compound application. A weighed amount, determined by the highest rate to be tested, of each test compound was placed in a 25 mL glass vial and was dissolved in 4 mL of a 97:3 v/v mixture of acetone and DMSO to obtain concentrated stock solutions. […] The concentrated stock solutions obtained were diluted with 20 mL of an aqueous mixture containing water and 0.02% w/v (weight/volume) of Triton X-155 to obtain spray solutions containing the highest application rates. Additional application rates were obtained by serial dilution of 12 mL of the high rate solution into a solution containing 2 mL of 97:3 v/v mixture of acetone and DMSO and 10 mL of an aqueous mixture containing water and 0.02% w/v (weight/volume) of Triton X-155 to obtain 1⁄2×, 1⁄4×, 1⁄8× and 1/16× rates of the high rate. Compound requirements are based upon a 12 mL application volume at a rate of 187 liters per hectare (L/ha). Formulated compounds were applied to the soil surface with an overhead Mandel track sprayer equipped with […] nozzles calibrated to deliver 187 L/ha over an application area of 0.503 square meters. Control pots were sprayed in the same manner with the solvent blank. The treated pots and control pots were placed in a greenhouse as described above and watered through surface irrigation. After 21 d, the condition of the test pots as compared with that of the untreated pots was determined visually and scored on a scale of 0 to 100 percent where 0 corresponds to no herbicidal effect and 100 corresponds to plant death or lack of emergence from the soil. By applying the well-accepted probit analysis as described by J. Berkson in Journal of the American Statistical Society, 48, 565 (1953) and by D. Finney in “Probit Analysis” Cambridge University Press (1952), the above data can be used to calculate GR20, GR50, GR80 and GR90 values, which are defined as growth reduction factors that correspond to the effective dose of herbicide required to kill or control 20 percent, 50 percent, 80 percent or 90 percent, respectively, of a target plant.

The subject of experiment [4] is PAPRH: common poppy (Papaver rhoeas). The experiment in a line: Post-emergent Test III, herbicidal activity in wheat and barley. The format is in vivo. An outline of the steps: as §1
The subject of experiment [5] is PHAMI: lesser canary grass (Phalaris minor). Described as above. The class given is in vivo. An outline of the steps:
as §1

Setting [6] is: probit analysis, dose for 50 percent growth reduction.
The mark [7] stands for this setting: probit analysis, dose for 80 percent growth reduction.
Setting [8] is: probit analysis, dose for growth reduction of 50 percent, 21 days after application.
Where [9] appears, read: probit analysis, dose for growth reduction of 80 percent, 21 days after application.

For `COC(=O)c1nc(-c2ccc(Br)c(F)c2)c(F)c(N)c1Cl` [Compound 49], the pest or weed control at 35 g/ha was 75 to 84% in experiment [1] (Salsola tragus, post-emergence, 504 h, 35 g ai/ha, read-out: Visual Gorowth Reduction (%) 21 days After Application SASKR) and 95 to 100% in experiment [2] (Viola tricolor, post-emergence, 504 h, 35 g ai/ha, read-out: Visual Gorowth Reduction (%) 21 days After Application VIOSS). The pest or weed control at 70 g/ha in experiment [1] (Salsola tragus, post-emergence, 504 h, 70 g ai/ha, read-out: Visual Gorowth Reduction (%) 21 days After Application SASKR) is 85 to 94%; in experiment [2] (Viola tricolor, post-emergence, 504 h, 70 g ai/ha, read-out: Visual Gorowth Reduction (%) 21 days After Application VIOSS), 95 to 100%. The “GR50 SASKR” value in experiment [1] (setting [6]) stood at 1 g ai/ha. Also, the “GR80 SASKR” value in experiment [1] (setting [7]) is given as 30 g ai/ha. In addition, the “GR50 VIOSS” value in experiment [2] (setting [6]) stood at 5 g ai/ha. In experiment [2] (setting [7]), the “GR80 VIOSS” value is reported as 8 g ai/ha. Also, the “Visual Growth Reduction (%) 21 Days After Application, SETVI” value in experiment [3] (35 g ai/ha) and in experiment [3] (70 g ai/ha) was “F (30-44)” in each case. In experiment [3] (21 days after application, dose to kill or control 50%, probit analysis), the “GR50 SETVI” value was >70 g ai/ha. The “GR80 SETVI” value in experiment [3] (21 days after application, dose to kill or control 80%, probit analysis) is reported as >70 g ai/ha.
`COC(=O)c1nc(-c2ccc(Cl)c(F)c2)c(F)c(N)c1Cl` [Compound 216]: the pest or weed control at 35 g/ha in experiment [4] (Papaver rhoeas, post-emergence, 504 h, 35 g ai/ha, read-out: Visual Growth Reduction (%) 21 Days After Application PAPRH) lay within 95 to 100%; in experiment [5] (Phalaris minor, post-emergence, 504 h, 35 g ai/ha, read-out: Visual Growth Reduction (%) 21 Days After Application PHAMI), 0 to 29%. The pest or weed control at 70 g/ha in experiment [4] (Papaver rhoeas, post-emergence, 504 h, 70 g ai/ha, read-out: Visual Growth Reduction (%) 21 Days After Application PAPRH) was in the range of 95 to 100%; in experiment [5] (Phalaris minor, post-emergence, 504 h, 70 g ai/ha, read-out: Visual Growth Reduction (%) 21 Days After Application PHAMI), 30 to 44%. The pest or weed control at 140 g/ha in experiment [4] (Papaver rhoeas, post-emergence, 504 h, 140 g ai/ha, read-out: Visual Growth Reduction (%) 21 Days After Application PAPRH) was in the range of 95 to 100%; in experiment [5] (Phalaris minor, post-emergence, 504 h, 140 g ai/ha, read-out: Visual Growth Reduction (%) 21 Days After Application PHAMI) it was 75 to 84%. Besides, the “GR50 PAPRH” value in experiment [4] (setting [8]) was 1 g ai/ha. In experiment [4] (setting [9]), the “GR80 PAPRH” value was 1 g ai/ha. Also, the “GR50 PHAMI” value in experiment [5] (setting [8]) is >140 g ai/ha. Besides, the “GR80 PHAMI” value in experiment [5] (setting [9]) is given as >140 g ai/ha.
